# Measured values from patent US20220313629A1, “TRANSIENT POTENTIAL MELASTATIN 8 (TRPM8) ANTAGONISTS AND RELATED METHODS” (MARSHALL UNIVERSITY RESEARCH CORPORATION, priority 2019, published 2022).
# What was measured:
# [1] = target: T1, TRPM8 (Homo sapiens, UniProt Q7Z2W7); experiment: TRPM8 antagonist activity by Fura-2 Ca2+ imaging in HEK-293 cells stably expressing human TRPM8; assay type: cell-based; details: for IC50: read-out: Functional Activity hTRPM8 potency IC50 ± SEM
# [2] = target: T1, TRPM8; experiment: Whole-cell patch-clamp electrophysiology, menthol-evoked TRPM8 currents in HEK-293 cells transiently transfected with human TRPM8; assay type: cell-based
# Protocol: HEK-293 Cell culture. Human embryonic kidney (HEK) 293 cells (ATCC CRL-1573) were cultured in growth medium comprising 90% Dulbecco's modified Eagle's medium, 10% fetal bovine serum, 100 U·mL-1 penicillin-streptomycin, and 2 mM L-glutamine (Gibco). Cells were cultured in 35 mm polystyrene dishes (Falcon) at 37° C. in the presence of 5% CO2. Cells were transiently transfected with human TRPM8 in a pIRES2 plasmid containing EGFP as a reporter. This plasmid expresses bicistronic mRNA with an internal ribosome entry site (IRES) positioned between the TRPM8 gene and the fluorescent protein reporter gene such that the reporter is not covalently fused to TRPM8. […]
# Whole-cell patch-clamp electrophysiology. […] Osmolality was measured using a Vapro 5600 vapor pressure osmometer (Wescor). […] Pipettes had resistances of 2-5 MO as measured in the extracellular solution. […] Current response from each cell was measured under each concentration of Compound 14. Only one cell was measured per cover slip to prevent confounding effects of previous exposure to menthol and Compound 14.
# Data analysis. For each cell, current magnitude at each concentration of Compound 14 was normalized by dividing by the maximum current measured at 500 μM menthol and without the antagonist. Normalized currents from six cells were averaged at each concentration of antagonist, and the standard error of the mean was calculated at each point. […]
# [3] = target: human TRPV1 (Homo sapiens, UniProt Q8NER1); experiment: TRPV1 agonist and antagonist Ca2+ flux assay (FLIPR, Fluo-8) in HEK293 cells stably expressing human TRPV1; assay type: cell-based; details: for hTRPV1 % Activation (n = 3): normalized to Emax of capsaicin (3 μM)
# [4] = system: Oxaliplatin (OXP)-induced cold allodynia in male C57-mice; experiment: Oxaliplatin (OXP)-induced cold allodynia, acetone test; assay type: in vivo, mouse
# Protocol: In Vivo Assays. C57-mice (≈30g) (Harlam, Holland) were used for the study. All experiments were approved by the Institutional Animal and Ethical Committee of the Universidad Miguel Hernandez where experiments were conducted and they were in accordance with the guidelines of the Economic European Community and the Committee for Research and Ethical Issues of the International Association for the Study of Pain. All parts of the study concerning animal care were performed under the control of veterinarians.
# Cold allodynia. Oxaliplatin (Tocris) was dissolved in water with gentle warming and was […] injected on days 1, 3 and 5 at a 6 mg/kg dose. The day 7 after administration, experiments were performed. Together with Oxaliplatin injection, saline and a 5% Mannitol solution were intraperitoneally injected to prevent kidney damage and dehydration. The Compound 14 stock was prepared in DMSO (Sigma-Aldrich) and diluted in saline for injections. Compounds at different doses (0.1 to 1 μg) was injected into the plantar surface (25 μL) of the right hind paw of mice. Cold chemical thermal sensitivity was assessed using acetone drop method. Mice were placed in a metal mesh cage and allowed to habituate for approximately 30 minutes in order to acclimatize them. Freshly dispensed acetone drop (10 μL) was applied gently on to the mid plantar surface of the hind paw. Cold chemical sensitive reaction with respect to paw licking was recorded as a positive response (nociceptive pain response). The responses were measured for 20-s with a digital stopwatch. For each measurement, the paw was sampled twice and the mean was calculated. The interval between each application of acetone was approximately 5 minutes.
# Cold Allodynia. […] Both acute and chronic OXP-induced cold hypersensitivity have been reproduced in rats and correlated with TRPM8 expression and function. Mizoguchi et al. reported that, in a rodent model, acute cold allodynia after OXP injection was alleviated by the TRPM8 blockers N-(2-aminoethyl)-N-[4-(benzyloxy)-3-methoxybenzyl]-N′-(1S)-1-(phenyl) ethyl] urea and TC-I 2014. According to these findings, the effect of Compound 14 was investigated in an OXP-induced cold allodynia model, using acetone for cooling stimulation. Considering that the cold pain threshold is increased from ≈12° C. to ≈26° C. in OXP-treated patients, acetone stimulation is considered to evoke pain in OXP-treated mice.
# The activity of Compound 14 was evaluated 7 days after three intraperitoneal injections of OXP (6 mg/kg) in C57/BL6 mice, when cold allodynia had developed.
# [5] = HEK293, read-out: hTRPV1 % Inhibition (n = 3)
# [6] = 0.1 and 1 μg single administration, day 7 after OXP
# human TRPV1, sequence (Q8NER1 whole entry): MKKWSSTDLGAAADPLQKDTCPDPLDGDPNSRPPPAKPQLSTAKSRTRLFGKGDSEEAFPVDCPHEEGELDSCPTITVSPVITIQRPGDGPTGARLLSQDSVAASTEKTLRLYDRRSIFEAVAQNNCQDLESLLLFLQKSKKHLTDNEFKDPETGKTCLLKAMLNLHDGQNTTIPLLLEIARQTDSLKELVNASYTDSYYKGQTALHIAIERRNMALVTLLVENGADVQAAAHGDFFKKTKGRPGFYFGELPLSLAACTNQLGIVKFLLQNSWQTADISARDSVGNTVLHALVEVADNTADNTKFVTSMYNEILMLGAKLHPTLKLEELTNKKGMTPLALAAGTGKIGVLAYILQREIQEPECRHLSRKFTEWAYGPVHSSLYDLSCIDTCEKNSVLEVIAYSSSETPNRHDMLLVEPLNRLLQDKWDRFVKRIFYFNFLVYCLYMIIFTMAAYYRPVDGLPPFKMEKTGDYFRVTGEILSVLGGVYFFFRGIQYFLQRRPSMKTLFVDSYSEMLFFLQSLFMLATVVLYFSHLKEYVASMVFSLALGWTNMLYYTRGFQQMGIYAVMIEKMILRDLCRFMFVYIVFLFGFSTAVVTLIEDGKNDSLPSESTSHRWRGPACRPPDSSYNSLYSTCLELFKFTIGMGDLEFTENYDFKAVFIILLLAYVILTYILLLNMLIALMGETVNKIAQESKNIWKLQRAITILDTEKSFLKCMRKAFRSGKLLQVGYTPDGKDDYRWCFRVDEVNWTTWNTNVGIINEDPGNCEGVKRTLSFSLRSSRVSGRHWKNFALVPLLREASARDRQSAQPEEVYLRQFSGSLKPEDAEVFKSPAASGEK
# T1 sequence (Q7Z2W7 whole entry): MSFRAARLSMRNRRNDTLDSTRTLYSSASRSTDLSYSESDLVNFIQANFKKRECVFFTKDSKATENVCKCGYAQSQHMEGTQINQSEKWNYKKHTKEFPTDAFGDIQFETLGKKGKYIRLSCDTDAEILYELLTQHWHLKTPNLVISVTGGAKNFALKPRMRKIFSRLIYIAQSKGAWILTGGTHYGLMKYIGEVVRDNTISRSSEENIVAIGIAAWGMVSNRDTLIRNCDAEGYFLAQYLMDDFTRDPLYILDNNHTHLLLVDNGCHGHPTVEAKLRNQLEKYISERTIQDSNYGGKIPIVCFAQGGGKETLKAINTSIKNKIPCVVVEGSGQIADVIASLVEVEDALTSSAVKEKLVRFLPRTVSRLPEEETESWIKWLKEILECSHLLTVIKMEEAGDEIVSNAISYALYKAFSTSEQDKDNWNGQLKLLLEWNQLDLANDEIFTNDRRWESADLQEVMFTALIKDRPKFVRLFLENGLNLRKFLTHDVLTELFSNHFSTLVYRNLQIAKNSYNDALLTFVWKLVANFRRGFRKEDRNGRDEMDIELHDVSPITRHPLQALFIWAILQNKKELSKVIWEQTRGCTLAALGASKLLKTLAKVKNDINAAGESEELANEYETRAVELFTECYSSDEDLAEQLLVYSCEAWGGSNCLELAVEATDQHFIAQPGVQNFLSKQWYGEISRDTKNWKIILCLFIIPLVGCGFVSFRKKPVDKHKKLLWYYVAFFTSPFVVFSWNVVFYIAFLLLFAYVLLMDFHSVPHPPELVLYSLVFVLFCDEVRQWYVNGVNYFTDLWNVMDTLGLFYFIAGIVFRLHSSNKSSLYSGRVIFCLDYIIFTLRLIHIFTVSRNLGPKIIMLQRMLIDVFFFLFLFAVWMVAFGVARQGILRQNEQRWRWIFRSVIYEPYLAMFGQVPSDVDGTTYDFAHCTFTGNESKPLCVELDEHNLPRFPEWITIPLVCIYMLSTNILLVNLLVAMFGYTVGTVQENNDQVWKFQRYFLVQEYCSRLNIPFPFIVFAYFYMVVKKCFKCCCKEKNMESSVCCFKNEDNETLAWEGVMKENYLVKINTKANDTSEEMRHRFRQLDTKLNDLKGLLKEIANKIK
smiles,measurement,setting,value
"O=C(NC1CCC2(CCCC2)CC1)c1ccc(-c2ccccc2)cc1 [Compound 14, N-(spiro[4.5]decan-8-yl)-[1,1′-biphenyl]-4-carboxamide]",effect on menthol-evoked TRPM8-mediated Ca2+ entry,[1]; compound at 3 nM against maximal (100 μM) menthol,significantly (P<0.01) reduce TRPM8-mediated Ca^2+ entry triggered by menthol
same,effect on icilin-induced Ca2+ influx at higher concentrations,[1]; higher concentrations of the dose-response curve,nearly abolishes the Ca^2+ influx
same,lowest concentration still causing significant reduction in icilin-evoked TRPM8-mediated Ca2+ entry,[1]; icilin 500 nM,3 nM
same,IC50,"[1]; inhibition of icilin (500 nM)-evoked Ca2+ entry, HEK-293 cells stably expressing hTRPM8, mean ± SEM, three independent experiments",2.4 ± 1 nM
same,IC50,[1],≤ 10 nM
same,antagonist activity relative to a tryptamine-based antagonist in the same assay,[2]; patch clamp,6 fold
same,IC50,"[2]; whole-cell patch clamp, +80 mV, 500 μM menthol, n=6 cells, read-out: IC50, inhibition of menthol-evoked TRPM8 currents",64 ± 2 nM
same,inhibition at 0.003 µM,[3]; [5],-9 ± 2%
same,inhibition at 0.03 µM,[3]; [5],-0.6 ± 5%
same,effect on hTRPV1-mediated responses (intrinsic and antagonist activity),[3]; at concentrations 13- to 25-fold higher than hTRPM8 IC50,do not affect
same,selectivity for TRPM8 vs. TRPV1,[3]; from FLIPR single-point assays,13 fold
same,hTRPV1 % Activation (n = 3),[3]; tested at 3 nM,1 ± 1%
same,hTRPV1 % Activation (n = 3),[3]; tested at 30 nM,1 ± 2%
same,time after administration at which attenuated cold allodynia is evident,[4]; [6],15 min
same,time after administration of maximum inhibition of cold allodynia,[4]; [6],30 min
same,effect on OXP effects at 60 minutes,[4]; 60 minutes after administration,significantly suppresses OXP effects
same,effect on oxaliplatin-induced cold allodynia,[4]; C57/BL6 mice,able to attenuate oxaliplatin-induced cold allodynia in vivo
